Assay [1] concerns the target T1, Adenosine receptor A1 (Homo sapiens) (UniProt P30542).
T1 sequence (whole entry): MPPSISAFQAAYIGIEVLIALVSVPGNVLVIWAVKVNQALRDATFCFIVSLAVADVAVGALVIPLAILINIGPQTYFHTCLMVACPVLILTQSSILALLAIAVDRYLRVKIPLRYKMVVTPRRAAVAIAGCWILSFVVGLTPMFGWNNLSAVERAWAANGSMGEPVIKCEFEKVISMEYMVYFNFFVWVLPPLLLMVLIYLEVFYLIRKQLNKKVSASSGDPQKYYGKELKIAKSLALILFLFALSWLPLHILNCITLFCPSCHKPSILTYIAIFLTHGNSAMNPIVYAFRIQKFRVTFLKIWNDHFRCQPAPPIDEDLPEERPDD
Briefly: Inhibition of human A1 adenosine receptor expressed in CHO cells at 10 uM after 60 mins by liquid scintillation counting. The class given is cell-based.

The target in assay [2] is T2, Adenosine receptor A3 (Homo sapiens) (UniProt P0DMS8).
T2 sequence (whole entry): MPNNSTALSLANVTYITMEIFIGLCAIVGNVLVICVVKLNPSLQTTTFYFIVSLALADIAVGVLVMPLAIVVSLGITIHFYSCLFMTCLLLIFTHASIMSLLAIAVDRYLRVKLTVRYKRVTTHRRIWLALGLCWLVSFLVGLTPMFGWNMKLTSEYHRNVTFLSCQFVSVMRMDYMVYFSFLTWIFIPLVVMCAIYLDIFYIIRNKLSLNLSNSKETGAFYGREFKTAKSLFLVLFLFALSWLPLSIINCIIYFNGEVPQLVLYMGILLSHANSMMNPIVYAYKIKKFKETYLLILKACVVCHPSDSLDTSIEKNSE
Briefly: Displacement of […] from human A3 adenosine receptor expressed in CHO cells at 10 uM after 60 mins by liquid scintillation counting. The class given is cell-based. In general terms: Displacement assays read how much labelled ligand stays bound in the presence of the test substance.

Assay [3] concerns the target T3, Adenosine receptor A2b (Homo sapiens) (UniProt P29275).
T3 sequence (whole entry): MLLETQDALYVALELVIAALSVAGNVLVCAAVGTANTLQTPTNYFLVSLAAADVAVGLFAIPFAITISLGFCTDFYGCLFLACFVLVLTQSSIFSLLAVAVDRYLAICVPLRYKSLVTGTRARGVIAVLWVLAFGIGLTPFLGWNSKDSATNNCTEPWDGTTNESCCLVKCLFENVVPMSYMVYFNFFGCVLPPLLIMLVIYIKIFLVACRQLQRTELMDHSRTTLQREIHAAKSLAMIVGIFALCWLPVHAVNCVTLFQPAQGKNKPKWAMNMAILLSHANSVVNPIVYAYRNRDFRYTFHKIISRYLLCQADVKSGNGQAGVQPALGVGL
Description: Antagonist activity at human A2B adenosine receptor expressed in CHO cells assessed as inhibition of NECA-induced cAMP accumulation at 10 uM after 20 mins. The class given is functional, cell-based. Background: Changes in cAMP serve as a functional read-out for many G protein-coupled receptors.

Another assay has as its target Adenosine receptor A2a (Homo sapiens, UniProt P29274). Briefly: Displacement of [3H]CGS21680 from human A2A adenosine receptor expressed in HEK293 cells at 10 uM after 60 mins by liquid scintillation counting. The class given is cell-based.

For orientation: inhibition means the relative decrease from the control value, in per cent.

Sequence of Adenosine receptor A2a (P29274 whole entry): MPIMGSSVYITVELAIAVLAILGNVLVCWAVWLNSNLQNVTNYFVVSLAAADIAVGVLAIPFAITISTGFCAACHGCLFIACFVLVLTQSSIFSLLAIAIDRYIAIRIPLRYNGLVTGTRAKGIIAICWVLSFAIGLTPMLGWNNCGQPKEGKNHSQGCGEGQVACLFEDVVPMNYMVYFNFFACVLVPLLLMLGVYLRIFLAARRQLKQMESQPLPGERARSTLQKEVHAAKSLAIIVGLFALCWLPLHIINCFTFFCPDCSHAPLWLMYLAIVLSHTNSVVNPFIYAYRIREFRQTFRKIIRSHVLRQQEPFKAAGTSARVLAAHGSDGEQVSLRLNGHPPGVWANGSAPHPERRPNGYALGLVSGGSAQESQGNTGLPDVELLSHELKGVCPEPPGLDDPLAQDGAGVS

For `Cc1ccccc1-c1n[nH]c(NC(=O)[C@@H](C)Oc2ccccc2)n1`, the inhibition in assay [1] was 6%; in assay [2], 48%; in assay [3], -3%; on Adenosine receptor A2a, 26%.
The like results for `Cc1ccc(-c2n[nH]c(NC(=O)COc3ccccc3F)n2)cc1` were, in that order, 2%, 50%, 11% and 2%.

The record behind these values is ChEMBL document CHEMBL2150932, “Structure-activity relationships and molecular modeling of 1,2,4-triazoles as adenosine receptor antagonists” (ACS Med Chem Lett, 2012).
